Assay [1] has as its target T1, PI3Kγ (Homo sapiens, UniProt P48736).
T1 construct: purchased Merck Millipore
Put plainly: In vitro PI3K inhibition assay (ADP-Glo kinase assay), PI3Kγ. In kind it is biochemical. Conditions: for IC50: mean of two independent experiments; for Fold Selectivity γ/δ: ratio IC50 PI3Kγ / IC50 PI3Kδ. How it is done:
(§1) All compounds were tested in a biochemical assay that measured the inhibition of phosphatidylinositol […] production by PI3K isoforms using the ADP-Glo kinase assay (Promega). In addition, the effects of synthesized compounds on B cell proliferation were measured.
(§2) The potency and selectivity of compounds were assessed by measuring the ability of PI3K kinases to convert ATP to ADP during an enzymatic reaction in the presence of decreasing doses of tested compounds. The experiments were carried out using the ADP-Glo kinase assay kit (Promega), according to the manufacturer’s protocol. PI3Kα, PI3Kβ, PI3Kδ, and PI3Kγ have been purchased from Merck Millipore and phosphoinositol-4,5-bisphosphate (PIP2) lipid vesicles with phosphoserine from ThermoFisher Scientific were used as a substrate in the enzymatic reaction.
(§3) After the reaction, the ADP-Glo reagent and the kinase detection reagent were added sequentially with 40 min of incubation (25 °C, 600 rpm) after adding each reagent. Finally, the luminescence intensity was measured and the IC50 was calculated using GraphPad Prism 7 software. The presented results are the mean value of IC50 from at least two independent experiments.

In assay [2] the target is T2, PI3Kδ (Homo sapiens, UniProt O00329).
T2 construct: purchased Merck Millipore
T2 sequence (O00329 whole entry, looked up): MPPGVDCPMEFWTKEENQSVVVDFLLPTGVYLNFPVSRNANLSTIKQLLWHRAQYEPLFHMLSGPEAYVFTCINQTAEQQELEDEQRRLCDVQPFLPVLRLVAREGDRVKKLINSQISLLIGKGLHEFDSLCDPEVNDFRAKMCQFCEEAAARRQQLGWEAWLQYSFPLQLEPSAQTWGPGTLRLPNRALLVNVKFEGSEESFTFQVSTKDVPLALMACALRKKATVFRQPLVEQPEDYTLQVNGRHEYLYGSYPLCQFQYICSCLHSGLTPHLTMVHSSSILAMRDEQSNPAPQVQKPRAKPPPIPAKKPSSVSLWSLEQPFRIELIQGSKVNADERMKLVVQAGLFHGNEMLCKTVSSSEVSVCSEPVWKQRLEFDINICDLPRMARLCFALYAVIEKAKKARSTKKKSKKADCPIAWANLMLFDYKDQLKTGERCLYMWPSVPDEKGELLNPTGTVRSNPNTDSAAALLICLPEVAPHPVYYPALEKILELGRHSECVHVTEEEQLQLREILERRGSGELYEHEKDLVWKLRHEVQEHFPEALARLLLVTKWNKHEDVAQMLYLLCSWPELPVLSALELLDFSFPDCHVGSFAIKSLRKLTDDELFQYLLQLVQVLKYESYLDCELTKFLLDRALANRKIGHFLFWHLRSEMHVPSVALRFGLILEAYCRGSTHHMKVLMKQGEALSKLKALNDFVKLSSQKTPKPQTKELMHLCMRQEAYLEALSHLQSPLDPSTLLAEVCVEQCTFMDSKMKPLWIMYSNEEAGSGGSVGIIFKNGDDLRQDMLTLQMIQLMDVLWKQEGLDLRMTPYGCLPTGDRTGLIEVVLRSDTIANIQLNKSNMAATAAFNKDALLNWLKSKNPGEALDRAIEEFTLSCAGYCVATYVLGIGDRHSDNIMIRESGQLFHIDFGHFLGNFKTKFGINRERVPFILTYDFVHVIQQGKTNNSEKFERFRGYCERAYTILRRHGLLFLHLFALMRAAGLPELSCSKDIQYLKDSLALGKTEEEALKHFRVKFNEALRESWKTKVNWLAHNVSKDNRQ
Kind of assay: In vitro PI3K inhibition assay (ADP-Glo kinase assay), PI3Kδ. It counts as biochemical. Conditions: mean of two independent experiments. How it is done:
as §1, §2, §3
(ADP-Glo first removes unused ATP, then detects ADP through luciferase.)

Experimental findings from PMC9415947 (Pharmaceuticals, 2022) are described below.

T1 sequence (P48736 whole entry): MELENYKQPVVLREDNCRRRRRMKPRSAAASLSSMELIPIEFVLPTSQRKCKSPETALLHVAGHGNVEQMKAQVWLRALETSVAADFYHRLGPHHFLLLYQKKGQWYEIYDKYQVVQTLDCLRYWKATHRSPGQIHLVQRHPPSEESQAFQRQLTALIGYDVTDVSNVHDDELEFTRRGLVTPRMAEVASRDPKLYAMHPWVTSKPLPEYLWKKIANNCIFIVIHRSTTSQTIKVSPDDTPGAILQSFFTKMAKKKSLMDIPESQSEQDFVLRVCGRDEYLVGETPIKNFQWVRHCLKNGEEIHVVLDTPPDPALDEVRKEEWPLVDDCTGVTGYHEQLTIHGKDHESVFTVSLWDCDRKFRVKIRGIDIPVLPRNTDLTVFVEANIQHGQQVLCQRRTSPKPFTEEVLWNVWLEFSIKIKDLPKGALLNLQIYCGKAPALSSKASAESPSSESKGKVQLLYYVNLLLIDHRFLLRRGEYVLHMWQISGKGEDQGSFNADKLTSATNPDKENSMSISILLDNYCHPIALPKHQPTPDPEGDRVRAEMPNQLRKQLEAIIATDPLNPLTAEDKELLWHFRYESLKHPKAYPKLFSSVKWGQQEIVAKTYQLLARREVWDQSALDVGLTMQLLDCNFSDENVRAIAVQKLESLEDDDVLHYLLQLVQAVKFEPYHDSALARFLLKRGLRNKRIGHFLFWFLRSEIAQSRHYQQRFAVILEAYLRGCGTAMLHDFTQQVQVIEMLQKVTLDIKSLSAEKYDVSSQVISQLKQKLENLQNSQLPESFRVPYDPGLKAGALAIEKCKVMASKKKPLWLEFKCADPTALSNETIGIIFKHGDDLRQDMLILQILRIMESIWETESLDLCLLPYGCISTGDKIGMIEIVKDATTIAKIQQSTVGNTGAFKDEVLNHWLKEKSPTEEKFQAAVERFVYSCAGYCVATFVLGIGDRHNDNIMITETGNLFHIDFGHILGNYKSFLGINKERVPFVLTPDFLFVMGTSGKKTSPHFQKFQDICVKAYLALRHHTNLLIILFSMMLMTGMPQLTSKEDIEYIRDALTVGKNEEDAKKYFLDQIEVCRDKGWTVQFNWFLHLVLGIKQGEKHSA

What is called IC50 is the concentration that inhibits the measured activity by half. As for `CC(C)(C)N1CCN(Cc2cc3nc(-n4c(C(F)(F)F)nc5ccccc54)cc(N4CCOCC4)n3n2)CC1` [Compound 9, 1-{2-[(4-tert-butylpiperazin-1-yl)methyl]-7-(morpholin-4-yl)pyrazolo[1,5-a]pyrimidin-5-yl}-2-(trifluoromethyl)-1H-benzimidazole], the IC50 in assay [1] is 135 µM; in assay [2], 0.907 µM. In addition, the “Fold Selectivity γ/δ” value in assay [1] came out at 149.
In the case of `CC(C)(O)C1CCN(C(=O)c2cc3nc(-n4c(C(F)F)nc5ccccc54)cc(N4CCOCC4)n3n2)CC1` [Compound 41], in assay [1], the IC50 was determined as 2.48 µM and the “Fold Selectivity γ/δ” value amounted to 25. The molecule further showed an IC50 in assay [2] of 0.101 µM.
Take `NC1CCN(Cc2cc3nc(-n4c(C(F)F)nc5ccccc54)cc(N4CCOCC4)n3n2)C1` (centres unmarked) [Compound 20, 1-({5-[2-(difluoromethyl)-1H-1,3-benzimidazol-1-yl]-7-(morpholin-4-yl)pyrazolo[1,5-a]pyrimidin-2-yl}methyl)pyrrolidin-3-amine]: in assay [1], the IC50 was 22.1 µM and the “Fold Selectivity γ/δ” value is given as 12. Further, in assay [2], it took 1.89 µM to reach half-maximal inhibition (IC50).
The corresponding values for `O=C(c1cc2nc(-n3c(C(F)F)nc4ccccc43)cc(N3CCOCC3)n2n1)N1CCC(N2CCOCC2)CC1` [Compound 52, 2-(difluoromethyl)-1-[7-(morpholin-4-yl)-2-[4-(morpholin-4-yl)piperidine-1-carbonyl]pyrazolo[1,5-a]pyrimidin-5-yl]-1H-1,3-benzimidazole] are 5.95 µM, 65 and 0.092 µM.
The corresponding values for `NC(=O)C1CCN(C(=O)c2cc3nc(-n4c(C(F)F)nc5ccccc54)cc(N4CCOCC4)n3n2)CC1` [Compound 48, 1-{5-[2-(difluoromethyl)-1H-1,3-benzimidazol-1-yl]-7-(morpholin-4-yl)pyrazolo[1,5-a]pyrimidine-2-carbonyl}piperidine-4-carboxamide] are 2.79 µM, 9 and 0.314 µM.
Turning to `FC(F)c1nc2ccccc2n1-c1cc(N2CCOCC2)n2nc(CN3CCC(N4CCOCC4)CC3)cc2n1` [Compound 33, 2-(difluoromethyl)-1-[7-(morpholin-4-yl)-2-{[4-(morpholin-4-yl)piperidin-1-yl]methyl}pyrazolo[1,5-a]pyrimidin-5-yl]-1H-1,3-benzimidazole], in assay [1], the IC50 stood at 4.8 µM and the “Fold Selectivity γ/δ” value was found to be 17. In assay [2], this molecule had an IC50 of 0.276 µM.
The corresponding values for `N#CC1CCN(C(=O)c2cc3nc(-n4c(C(F)F)nc5ccccc54)cc(N4CCOCC4)n3n2)CC1` [Compound 51, 1-{5-[2-(difluoromethyl)-1H-1,3-benzimidazol-1-yl]-7-(morpholin-4-yl)pyrazolo[1,5-a]pyrimidine-2-carbonyl}piperidine-4-carbonitrile] are 1.63 µM, 4.7 and 0.344 µM.
Regarding `NC1CCN(C(=O)c2cc3nc(-n4c(C(F)F)nc5ccccc54)cc(N4CCOCC4)n3n2)C1` (centres unmarked) [Compound 45, 1-{5-[2-(difluoromethyl)-1H-1,3-benzodiazol-1-yl]-7-(morpholin-4-yl)pyrazolo[1,5-a]pyrimidine-2-carbonyl}pyrrolidin-3-amine], in assay [1], 23.3 µM corresponded to half-maximal inhibition (IC50) and the “Fold Selectivity γ/δ” value is recorded as 14. The molecule further returned a 50% inhibitory concentration (IC50) in assay [2] of 1.7 µM.
The corresponding values for `O=C(c1cc2nc(-n3c(C(F)F)nc4ccccc43)cc(N3CCOCC3)n2n1)N1CCC(O)CC1` [Compound 53, 1-{5-[2-(difluoromethyl)-1H-1,3-benzimidazol-1-yl]-7-(morpholin-4-yl)pyrazolo[1,5-a]pyrimidine-2-carbonyl}piperidin-4-ol] are 2.08 µM, 11 and 0.195 µM.
Take `CC(C)N1CCN(C(=O)c2cc3nc(-n4c(C(F)F)nc5ccccc54)cc(N4CCOCC4)n3n2)CC1` [Compound 57, 2-(difluoromethyl)-1-[7-(morpholin-4-yl)-2-[4-(propan-2-yl)piperazine-1-carbonyl]pyrazolo[1,5-a]pyrimidin-5-yl]-1H-1,3-benzimidazole]: the half-maximal inhibitory concentration (IC50) in assay [1] was 25.5 µM; in assay [2], 0.271 µM.
Regarding `N#CC1CCN(Cc2cc3nc(-n4c(C(F)F)nc5ccccc54)cc(N4CCOCC4)n3n2)CC1` [Compound 32, 1-({5-[2-(difluoromethyl)-1H-1,3-benzimidazol-1-yl]-7-(morpholin-4-yl)pyrazolo[1,5-a]pyrimidin-2-yl}methyl)piperidine-4-carbonitrile], in assay [1], the half-maximal inhibitory concentration (IC50) is 3.15 µM and the “Fold Selectivity γ/δ” value is listed as 16. Moreover, in assay [2], the 50% inhibitory concentration (IC50) was found to be 0.192 µM.
The corresponding values for `O=C(c1cc2nc(-n3c(C(F)F)nc4ccccc43)cc(N3CCOCC3)n2n1)N1CCN(C(=O)C2CC2)CC1` [Compound 43, 1-[2-(4-cyclopropanecarbonylpiperazine-1-carbonyl)-7-(morpholin-4-yl)pyrazolo[1,5-a]pyrimidin-5-yl]-2-(difluoromethyl)-1H-1,3-benzimidazole] are 3.83 µM, 61 and 0.063 µM.
The corresponding values for `CC(C)(C)N1CCN(C(=O)c2cc3nc(-n4c(C(F)F)nc5ccccc54)cc(N4CCOCC4)n3n2)CC1` [Compound 40, 1-[2-(4-tert-butylpiperazine-1-carbonyl)-7-(morpholin-4-yl)pyrazolo[1,5-a]pyrimidin-5-yl]-2-(difluoromethyl)-1H-1,3-benzimidazole] are 48.8 µM, 581 and 0.084 µM.
The corresponding values for `FC(F)c1nc2ccccc2n1-c1cc(N2CCOCC2)n2nc(CNC3CCOCC3)cc2n1` [Compound 27, N-({5-[2-(difluoromethyl)-1H-1,3-benzimidazol-1-yl]-7-(morpholin-4-yl)pyrazolo[1,5-a]pyrimidin-2-yl}methyl)oxan-4-amine] are 20.5 µM, 11 and 1.81 µM.
Turning to `O=C(c1cc2nc(-n3c(C(F)F)nc4ccccc43)cc(N3CCOCC3)n2n1)N1CCC(F)(F)CC1` [Compound 47, 2-(difluoromethyl)-1-[2-(4,4-difluoropiperidine-1-carbonyl)-7-(morpholin-4-yl)pyrazolo[1,5-a]pyrimidin-5-yl]-1H-1,3-benzimidazole], in assay [1], the midpoint of inhibition, the IC50, lay at 35.8 µM and the “Fold Selectivity γ/δ” value is reported as 45. In addition, half-maximal inhibition in assay [2] (IC50) required 0.801 µM.
The corresponding values for `O=C(c1cc2nc(-n3c(C(F)F)nc4ccccc43)cc(N3CCOCC3)n2n1)N1CCCC1CO` (centres unmarked) [Compound 44, (1-{5-[2-(difluoromethyl)-1H-1,3-benzodiazol-1-yl]-7-(morpholin-4-yl)pyrazolo[1,5-a]pyrimidine-2-carbonyl}pyrrolidin-2-yl)methanol] are 2.02 µM, 4.4 and 0.459 µM.
The corresponding values for `O[C@H]1CCN(Cc2cc3nc(-n4c(C(F)F)nc5ccccc54)cc(N4CCOCC4)n3n2)C1` [Compound 21, (3S)-1-({5-[2-(difluoromethyl)-1H-1,3-benzimidazol-1-yl]-7-(morpholin-4-yl)pyrazolo[1,5-a]pyrimidin-2-yl}methyl)pyrrolidin-3-ol] are 10.9 µM, 11 and 0.956 µM.
